Results as given in patent US6951856B2, “Arylethene-sulfonamides” (Actelion Pharmaceuticals Ltd., priority 2000, dated 2005).

Key:
[1] = biological target: T1, human recombinant ETA receptors (Homo sapiens, UniProt P25101); assay: Inhibition of [125I]ET-1 binding to membranes from CHO cells carrying human ETA receptors; conditions: CHO cell membranes, 8 pM [125I]ET-1, 2 h at 20° C.
T1 construct: expressed in transfected cells; host or cells: CHO cells (microsomal membranes)
T1 sequence (P25101 21-427): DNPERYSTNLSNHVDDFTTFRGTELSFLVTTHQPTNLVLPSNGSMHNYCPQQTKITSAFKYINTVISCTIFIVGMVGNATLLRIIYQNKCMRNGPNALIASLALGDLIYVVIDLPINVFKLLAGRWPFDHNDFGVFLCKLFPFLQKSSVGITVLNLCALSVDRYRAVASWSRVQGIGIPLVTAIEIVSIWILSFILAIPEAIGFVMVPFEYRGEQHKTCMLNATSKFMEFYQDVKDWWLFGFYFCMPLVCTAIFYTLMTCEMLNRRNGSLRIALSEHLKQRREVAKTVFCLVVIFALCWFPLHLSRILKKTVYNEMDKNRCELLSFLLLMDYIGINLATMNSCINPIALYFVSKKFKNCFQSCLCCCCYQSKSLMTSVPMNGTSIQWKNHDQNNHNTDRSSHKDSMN
Method: (§1) 1) Inhibition of Endothelin Binding to Membranes from CHO Cells Carrying Human ET Receptors
(§2) For competition binding studies, membranes of CHO cells expressing human recombinant ETA or ETB receptors were used. Microsomal membranes from recombinant CHO cells were prepared and the binding assay made as previously described (Breu V., et al, FEBS Lett 1993; 334:210).
(§3) The assay was performed in 200 uL 50 mM Tris/HCl buffer, pH 7.4, including 25 mM MnCl2, 1 mM EDTA and 0.5% (w/v) BSA in polypropylene microtiter plates. […] After 2 h, the membranes were filtered on filterplates containing GF/C filters (Unifilterplates from Canberra Packard S.A. Zürich, Switzerland). To each well, 50 uL of scintillation cocktail was added (MicroScint 20, Canberra Packard S.A. Zürich, Switzerland) and the filter plates counted in a microplate counter (TopCount, Canberra Packard S.A. Zürich, Switzerland).
(§4) All the test compounds were dissolved, diluted and added in DMSO.

[2] = biological target: T2, human recombinant ETB receptors (Homo sapiens, UniProt P24530); assay: Inhibition of [125I]ET-1 binding to membranes from CHO cells carrying human ETB receptors
T2 construct: expressed in transfected cells; host or cells: CHO cells (microsomal membranes)
T2 sequence (P24530 27-442): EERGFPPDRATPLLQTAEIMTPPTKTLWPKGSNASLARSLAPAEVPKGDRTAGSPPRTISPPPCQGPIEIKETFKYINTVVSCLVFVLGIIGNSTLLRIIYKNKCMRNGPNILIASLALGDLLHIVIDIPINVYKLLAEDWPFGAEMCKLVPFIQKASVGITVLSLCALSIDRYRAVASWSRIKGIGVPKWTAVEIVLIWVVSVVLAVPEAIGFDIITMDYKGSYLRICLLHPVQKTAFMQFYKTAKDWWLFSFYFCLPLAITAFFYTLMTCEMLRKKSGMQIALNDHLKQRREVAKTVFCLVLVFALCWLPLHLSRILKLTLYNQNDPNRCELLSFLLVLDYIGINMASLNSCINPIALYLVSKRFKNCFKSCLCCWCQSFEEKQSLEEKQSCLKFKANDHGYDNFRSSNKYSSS
Method: as §1, §2, §3, §4

| Compound | IC50 [1] [nM] | IC50 [2] [nM] |
| --- | --- | --- |
| COc1cnc(OCCOc2ncnc(NS(=O)(=O)/C=C/c3ccccc3)c2-c2ccc(C)cc2)nc1 [Example 21] | 14.7 | 749 |
| O=S(=O)(/C=C/c1ccccc1)Nc1nc(N2CCCCC2)nc(OCCOc2ncc(Br)cn2)c1-c1ccccc1 [Example 116] | 24.9 | > 10000 |
| COc1cnc(OCCOc2ncnc(NS(=O)(=O)/C=C/c3ccccc3)c2Oc2cc(OC)ccc2Cl)nc1 [Example 226] | 15.4 | 1550 |
| COc1ccc(-c2c(NS(=O)(=O)/C=C/c3ccccc3)ncnc2OCCOc2ccc(Br)cn2)cc1 [Example 124] | 33.2 | 309 |
| COc1cnc(OCCOc2nc(-c3ccncc3)nc(NS(=O)(=O)/C=C/c3ccccc3)c2Oc2ccccc2OC)nc1 [Example 160] | 12.9 | 757 |
| Cc1ccc(-c2c(NS(=O)(=O)/C=C/c3ccccc3)ncnc2OCCOc2cnccn2)cc1 [Example 4] | 273 | 8600 |
| O=S(=O)(/C=C/c1ccccc1)Nc1ncnc(OCCOc2ncc(C(F)(F)F)cn2)c1-c1ccccc1 [Example 95] | 33 | 8390 |
| O=S(=O)(/C=C/c1ccc(Cl)cc1)Nc1ncnc(OCCOc2ncc(Br)cn2)c1-c1ccc(Cl)cc1 [Example 54] | 14 | 183 |
| CSc1nc(NS(=O)(=O)/C=C/c2ccccc2)c(-c2ccccc2)c(OCCOc2ncc(Br)cn2)n1 [Example 101] | 30.7 | 8680 |
| O=S(=O)(/C=C/c1ccccc1)Nc1nc(-c2ccncc2)nc(OCCOc2ncc(Br)cn2)c1-c1ccccc1 [Example 109] | 39 | > 10000 |
| COc1ccccc1Oc1c(NS(=O)(=O)/C=C/c2ccccc2)ncnc1OCCOc1ncc(SC)cn1 [Example 222] | 41 | 506 |
| C/C(=C\c1ccccc1)S(=O)(=O)Nc1ncnc(OCCOc2ncc(Br)cn2)c1-c1ccc(Cl)cc1 [Example 62] | 58 | 4900 |
| CCc1ccc(-c2c(NS(=O)(=O)/C=C/c3ccccc3)ncnc2OCCOc2ncc(Br)cn2)cc1 [Example 36] | 20 | 3390 |
| COc1nc(NS(=O)(=O)/C=C/c2ccccc2)c(-c2ccccc2)c(OCCOc2ncc(Br)cn2)n1 [Example 114] | 18.4 | 3880 |
| COc1cnc(OCCOc2ncnc(NS(=O)(=O)/C=C/c3cccc(C)c3)c2-c2ccc(Cl)cc2)nc1 [Example 53] | 21 | 1360 |
| COc1ccc(-c2c(NS(=O)(=O)/C=C/c3ccccc3)ncnc2OCCOc2ncc(OC)cn2)cc1 [Example 119] | 55 | 735 |
| COCCOc1nc(NS(=O)(=O)/C=C/c2ccccc2)c(-c2ccccc2)c(OCCOc2ncc(Br)cn2)n1 [Example 113] | 14.7 | > 10000 |
| Cc1ccc(/C=C/S(=O)(=O)Nc2ncnc(OCCOc3ncc(Cl)cn3)c2-c2ccc(Cl)cc2)cc1 [Example 60] | 30 | 558 |
| COc1ccccc1Oc1c(NS(=O)(=O)/C=C/c2ccccc2)nc(-c2cnccn2)nc1OCCOc1ncc(Br)cn1 [Example 182] | 16.7 | 1400 |
| Cc1ccc(-c2c(NS(=O)(=O)/C=C/c3ccccc3)nc(N3CCOCC3)nc2OCCOc2ncc(Br)cn2)cc1 [Example 127] | 14.2 | 2750 |
| COc1ccc(-c2c(NS(=O)(=O)/C=C/c3ccccc3)ncnc2OCCOc2ncc(Cl)cn2)cc1 [Example 120] | 38.7 | 1630 |

The remaining compounds from weak to strong by IC50 [1], led by results:

| IC50 [1] [nM] | IC50 [2] [nM] | Compound |
| --- | --- | --- |
| 12.8 | 130 | Cc1ccc(-c2c(NS(=O)(=O)/C=C/c3ccccc3)ncnc2OCCOc2ccc(C(F)(F)F)cn2)cc1 [Example 5, 2-Phenyl-ethenesulfonic acid {5-p-tolyl-6-[2-(5-trifluoromethyl-pyridin-2-yloxy)-ethoxy]-pyrimidin-4-yl}-amide] |
| 12.1 | 1260 | COc1ccccc1Oc1c(NS(=O)(=O)/C=C/c2cccs2)nc(-c2ncccn2)nc1OCCOc1ncccn1 [Example 158] |
| 11.5 | 193 | Cc1ccc(-c2c(NS(=O)(=O)/C=C/c3ccc(Cl)cc3)ncnc2OCCOc2ncc(Br)cn2)cc1 [Example 27] |
| 10 | 290 | COc1cccc(Oc2c(NS(=O)(=O)/C=C/c3ccccc3)ncnc2OCCOc2ncc(SC)cn2)c1 [Example 232] |
| 10 | 3060 | COc1cnc(OCCOc2nc(-c3ncccn3)nc(NS(=O)(=O)/C=C/c3ccccc3)c2-c2ccc(C)cc2)nc1 [Example 144] |
| 10 | 1560 | COc1ccccc1Oc1c(NS(=O)(=O)/C=C/c2ccccc2)nc(-c2ccncc2)nc1OCCOc1ncc(Cl)cn1 [Example 164] |
| 9.8 | 1690 | COc1cnc(OCCOc2nc(C)nc(NS(=O)(=O)/C=C/c3ccccc3)c2-c2ccc(C)cc2)nc1 [Example 139] |
| 9 | 2380 | Cc1ccc(-c2c(NS(=O)(=O)/C=C/c3cccs3)nc(-c3ncccn3)nc2OCCOc2ncc(Br)cn2)cc1 [Example 72] |
| 9 | 699 | COc1cnc(OCCOc2nc(-c3ccncc3)nc(NS(=O)(=O)/C=C/c3ccsc3)c2Oc2ccccc2OC)nc1 [Example 179] |
| 9 | 3640 | COc1cnc(OCCOc2nc(-c3cnccn3)nc(NS(=O)(=O)/C=C/c3ccccc3)c2-c2ccc(C)cc2)nc1 [Example 126] |
| 8.2 | 270 | Cc1ccc(/C=C/S(=O)(=O)Nc2ncnc(OCCOc3ncc(Br)cn3)c2-c2ccc(C)cc2)cc1 [Example 23] |
| 8.2 | 1770 | COc1cnc(OCCOc2nc(C3CC3)nc(NS(=O)(=O)/C=C/c3ccccc3)c2-c2ccc(C)cc2)nc1 [Example 133] |
| 7.5 | 1490 | Cc1cccc(/C=C/S(=O)(=O)Nc2ncnc(OCCOc3ncc(Br)cn3)c2-c2ccc(Cl)cc2)c1 [Example 52] |
| 7.1 | 1980 | COc1ccccc1Oc1c(NS(=O)(=O)/C=C/c2ccsc2)nc(-c2ccncc2)nc1OCCOc1ncc(Cl)cn1 [Example 181] |
| 6.7 | 2700 | Cc1ccc(-c2c(NS(=O)(=O)/C=C/c3ccccc3)nc(-c3cnccn3)nc2OCCOc2ncc(Br)cn2)cc1 [Example 125] |
| 6.3 | 4890 | Cc1ccc(-c2c(NS(=O)(=O)/C=C/c3ccccc3)nc(C3CC3)nc2OCCOc2ncc(Cl)cn2)cc1 [Example 134] |
| 6.2 | 629 | Cc1ccc(-c2c(NS(=O)(=O)/C=C/c3ccccc3)ncnc2OCCOc2ncc(Br)cn2)cc1C [Example 40] |
| 6 | 1650 | Cc1ccc(-c2c(NS(=O)(=O)/C=C/c3cccs3)ncnc2OCCOc2ncc(Cl)cn2)cc1 [Example 69] |
| 5.4 | 1780 | Cc1ccc(-c2c(NS(=O)(=O)/C=C/c3cccc(C)c3)ncnc2OCCOc2ncc(Br)cn2)cc1 [Example 41] |
| 5.2 | 830 | COc1ccc(Cl)c(Oc2c(NS(=O)(=O)/C=C/c3ccccc3)ncnc2OCCOc2ncc(Br)cn2)c1 [Example 225] |
| 5 | 671 | COc1ccccc1Oc1c(NS(=O)(=O)/C=C/c2ccsc2)nc(-c2ccncc2)nc1OCCOc1ncc(Br)cn1 [Example 178] |
| 4.7 | 499 | COc1ccccc1Oc1c(NS(=O)(=O)/C(C)=C/c2ccccc2)nc(-c2ccncc2)nc1OCCOc1ncc(Br)cn1 [Example 175] |
| 4.6 | 193 | COc1cnc(OCCOc2ncnc(NS(=O)(=O)/C=C/c3ccccc3)c2-c2ccc(Br)cc2)nc1 [Example 86] |
| 4.4 | 1340 | Cc1ccc(-c2c(NS(=O)(=O)/C=C/c3ccccc3)nc(C)nc2OCCOc2ncc(Br)cn2)cc1 [Example 138] |
| 4.3 | 336 | COc1cnc(OCCOc2ncnc(NS(=O)(=O)/C=C/c3cccs3)c2-c2ccc(Br)cc2)nc1 [Example 90] |
| 2.4 | 349 | COc1ccccc1Oc1c(NS(=O)(=O)/C(C)=C/c2ccccc2)nc(N2CCOCC2)nc1OCCOc1ncc(Br)cn1 [Example 202] |
